Series [1] is described as follows: Cytotoxicity against human HeLa cells assessed as cell growth inhibition after 24 hrs by MTT assay. It is filed as functional, cell-based. (Tetrazolium assays rely on reduction of a dye to a coloured formazan, in cell work by metabolically active cells.)
Series [2] can be described thus: Cytotoxicity against human MCF7 cells assessed as cell growth inhibition after 24 hrs by MTT assay. It is filed as functional, cell-based. Conditions: MCF7, 24 h.
Series [3] is described as follows: Cytotoxicity against human A549 cells assessed as cell growth inhibition after 24 hrs by MTT assay. It is filed as functional, cell-based. Conditions: A549, 24 h.
For series [4], the system named is MCF7. Nature of the series: Induction of apoptosis in human MCF7 cells assessed as presence of apoptotic bodies at antiproliferative IC50 after 24 hrs by hoechst 33258 staining-based fluorescent microscopic analysis. It is filed as functional, cell-based.
The subject of series [5] is MCF7. Nature of the series: Induction of apoptosis in human MCF7 cells assessed as plasma membrane blebbing at antiproliferative IC50 after 48 hrs by hoechst 33258 staining-based fluorescent microscopic analysis. It is filed as functional, cell-based.
The subject of series [6] is MCF7. In words: Induction of apoptosis in human MCF7 cells assessed as DNA fragmentation at antiproliferative IC50 after 24 hrs by ethidium bromide staining based agarose gel electrophoresis method. It is filed as functional, cell-based.
Series [7] relates to MCF7. In words: Induction of apoptosis in human MCF7 cells assessed as increase in number of abnormal cells at antiproliferative IC50 by hoechst 33258 staining-based fluorescent microscopic analysis. It is filed as functional, cell-based. To be noted: TDE = time-dependent effect.
For series [8], the system named is MCF7. In words: Induction of apoptosis in human MCF7 cells assessed as fragmented nuclei at antiproliferative IC50 after 24 hrs by hoechst 33258 staining-based fluorescent microscopic analysis. It is filed as functional, cell-based.
Series [9] deals with MCF7. In words: Induction of apoptosis in human MCF7 cells at antiproliferative IC50 assessed as late apoptotic cells after 48 hrs by AO/EB dual staining-based fluorescent microscopic analysis. It is filed as functional, cell-based.
The nature of series [10]: Downregulation of Bcl2 protein expression in human MCF7 cells at antiproliferative IC50 after 24 hrs by Western blot analysis. It is filed as functional, cell-based. On the technique in general: A western blot detects proteins with antibodies after separation by electrophoresis.
The subject of series [11] is MCF7. In words: Induction of apoptosis in human MCF7 cells assessed as morphological changes at antiproliferative IC50 by AO/EB dual staining-based fluorescent microscopic analysis. It is filed as functional, cell-based. To be noted: TDE = time-dependent effect.
The subject of series [12] is MCF7. In words: Induction of apoptosis in human MCF7 cells assessed as cytoskeleton breakdown at antiproliferative IC50 after 48 hrs by hoechst 33258 staining-based fluorescent microscopic analysis. It is filed as functional, cell-based.
Series [13] deals with MCF7. Nature of the series: Induction of apoptosis in human MCF7 cells assessed as early apoptotic cells at antiproliferative IC50 after 24 hrs by AO/EB dual staining-based fluorescent microscopic analysis. It is filed as functional, cell-based.
The nature of series [14]: Hemolytic activity against human RBC at 31.2 uM after 4 hrs. It is filed as ADME, cell-based. To be noted: erythrocyte.
Series [15] is described as follows: Upregulation of Bax protein expression in human MCF7 cells at antiproliferative IC50 after 24 hrs by Western blot analysis. It is filed as functional, cell-based.
For series [16], the system named is MCF7. Nature of the series: Induction of apoptosis in human MCF7 cells assessed as chromatin condensation at antiproliferative IC50 after 24 hrs by hoechst 33258 staining-based fluorescent microscopic analysis. It is filed as functional, cell-based.
Series [17] has as its system MCF7. Nature of the series: Induction of mitochondrial membrane potential loss in human MCF7 cells assessed as accumulation of cells at upper right quadrant at 26.2 uM after 48 hrs by JC-1 staining-based fluorescent microscopic analysis (reference value: 0.2 %). It is filed as functional.
The nature of series [18]: Hemolytic activity against human RBC at 26.2 uM after 4 hrs. It is filed as ADME, cell-based. Conditions: erythrocyte.
The nature of series [19]: Downregulation of Bcl2 mRNA expression in human MCF7 cells assessed as Bcl2 mRNA expression level at antiproliferative IC50 after 12 hrs by RT-qPCR analysis relative to control. It is filed as functional, cell-based.
Series [20] can be described thus: Downregulation of Bcl2 mRNA expression in human MCF7 cells assessed as Bcl2 mRNA expression level at antiproliferative IC50 after 24 hrs by RT-qPCR analysis relative to control. It is filed as functional, cell-based. In general terms: In qPCR the cycle at which signal appears reflects the starting amount.
Series [21] has as its system MCF7. Nature of the series: Induction of mitochondrial membrane potential depolarization in human MCF7 cells assessed as increase in green fluorescence at 26.2 uM after 24 to 48 hrs by JC-1 staining-based fluorescent microscopic analysis. It is filed as functional, cell-based.
For series [22], the system named is MCF7. Nature of the series: Induction of mitochondrial membrane potential loss in human MCF7 cells assessed as accumulation of cells at lower right quadrant at 26.2 uM after 48 hrs by JC-1 staining-based fluorescent microscopic analysis (reference value: 0.1 %). It is filed as functional.
A short description of series [23]: Downregulation of Bcl2 mRNA expression in human MCF7 cells assessed as Bcl2 mRNA expression level at antiproliferative IC50 after 48 hrs by RT-qPCR analysis relative to control. It is filed as functional, cell-based.
Series [24] deals with MCF7. Nature of the series: Induction of mitochondrial membrane potential loss in human MCF7 cells assessed as accumulation of cells at upper right quadrant at 14.3 uM after 48 hrs by JC-1 staining-based fluorescent microscopic analysis (reference value: 0.2 %). It is filed as functional.
The subject of series [25] is MCF7. Nature of the series: Induction of mitochondrial membrane potential depolarization in human MCF7 cells assessed as increase in green fluorescence at 14.3 uM after 24 to 48 hrs by JC-1 staining-based fluorescent microscopic analysis. It is filed as functional, cell-based.
Series [26] can be described thus: Hemolytic activity against human RBC at 14.36 uM after 4 hrs. Conditions: erythrocyte. It is filed as ADME, cell-based.
Series [27] has as its system MCF7. In words: Induction of mitochondrial membrane potential loss in human MCF7 cells assessed as accumulation of cells at lower right quadrant at 14.3 uM after 48 hrs by JC-1 staining-based fluorescent microscopic analysis (reference value: 0.1 %). It is filed as functional.
Series [28] in a line: Hemolytic activity against human RBC at 28.7 uM after 4 hrs. It is filed as ADME, cell-based. To be noted: erythrocyte.

These results are taken from ChEMBL document CHEMBL3865802, “Natural product-inspired rational design, synthesis and biological evaluation of 2,3-dihydropyrano[2,3-f]chromen-4(8H)-one based hybrids as potential mitochondrial apoptosis inducers” (Eur J Med Chem, 2016).

Molecules are shown by their SMILES. Active and inactive are the calls of the source. The rule behind the calls is not given here.

Regarding `c1ccc([C@H]2CN3CCSC3=N2)cc1` [LEVAMISOLE], the IC50 (as a rule, the concentration that gives 50% inhibition) in series [1] is 96 µM; in series [2], > 100 µM; in series [3], > 100 µM.
On to `CC1Oc2c(cc(C(=O)Nc3nnc(-c4ccc([N+](=O)[O-])cc4)s3)c3c2C=CC(C)(C)O3)C(=O)C1C` (stereo unspecified), for which the outcome (with MCF7 [4]; with MCF7 [5]; in the series with MCF7 [6]; in the series on MCF7 [8]; in the series with MCF7 [9]; in series [10]) was Active. For the same molecule, the result (in the series with MCF7 [12]; in the series on MCF7 [13]; in series [15]; in the series with MCF7 [16]) was Active. The figures for the Activity result (in the series with MCF7 [7]; in the series on MCF7 [11]; in series [14]) were “Tde”, “Tde” and “Non-Toxic”, respectively. Besides, the half-inhibitory concentration (IC50) in series [1] was 42.9 µM; in [2] it was 31.2 µM; in series [3] it was 42.3 µM.
As for `COc1cc(-c2nnc(NC(=O)c3cc4c(c5c3OC(C)(C)C=C5)OC(C)C(C)C4=O)s2)cc(OC)c1OC` (stereo unspecified), the IC50 in series [1] worked out at 97.8 µM; in series [2], 70 µM; in series [3], 79.3 µM.
The like results for `CC1Oc2c(cc(C(=O)O)c3c2C=CC(C)(C)O3)C(=O)C1C` (stereo unspecified) were, in that order, 102 µM, 88.7 µM and 116 µM.
In the case of `CC1Oc2c(cc(C(=O)Nc3nccs3)c3c2C=CC(C)(C)O3)C(=O)C1C` (stereo unspecified), the IC50 in series [1] worked out at 84 µM; in series [2], 75 µM; in [3], 64.4 µM.
Turning to `CC1Oc2c(cc(C(=O)Nc3cccc4ccccc34)c3c2C=CC(C)(C)O3)C(=O)C1C` (stereo unspecified), the IC50 turned out to be 41.7 µM in series [1], 48.1 µM in series [2] and 58.1 µM in series [3].
With `CC1Oc2c(cc(C(=O)Nc3nnc(-c4cccs4)s3)c3c2C=CC(C)(C)O3)C(=O)C1C` (stereo unspecified), the IC50 is 92.8 µM in series [1], 78.2 µM in series [2] and 74.5 µM in series [3].
Take `CC1Oc2c(cc(C(=O)Nc3ccncc3)c3c2C=CC(C)(C)O3)C(=O)C1C` (stereo unspecified): the Activity in the series with MCF7 [17] was 79.8%; in series [18], “Non-Toxic”; in series [19] it was 92.2%; with MCF7 [7], “Tde”; in [20] it was 64%; in the series on MCF7 [11] it was “Tde”. Also, the Activity stood at 20.2% in the series with MCF7 [22] and 57% in series [23]. In addition, the result (with MCF7 [4]; in the series with MCF7 [5]; with MCF7 [6]; with MCF7 [8]; in the series on MCF7 [9]; in [10]) was Active. For the same molecule, the result (in the series on MCF7 [21]; with MCF7 [12]; with MCF7 [13]; in series [15]; with MCF7 [16]) was Active. The half-inhibitory concentration (IC50) is 28.6 µM in [1], 26.2 µM in series [2] and 39.3 µM in series [3].
`CC1Oc2c(cc(C(=O)Nc3nnc(-c4ccccc4)s3)c3c2C=CC(C)(C)O3)C(=O)C1C` (stereo unspecified): the values for the half-maximal inhibitory concentration (IC50) in series [1], in [2] and in series [3] were 40.2 µM, 37.8 µM and 32.4 µM, respectively.
Take `COc1cc2c(cc1OC)[C@@H]1C(=O)c3ccc4c(c3O[C@@H]1CO2)C=CC(C)(C)O4` [DEGUELIN]: the half-maximal inhibitory concentration (IC50) in series [2] was found to be 10.6 µM.
Turning to `Cc1ccc(-c2nnc(NC(=O)c3cc4c(c5c3OC(C)(C)C=C5)OC(C)C(C)C4=O)s2)cc1` (stereo unspecified), the outcome in the series on MCF7 [4], in the series on MCF7 [5], in the series with MCF7 [6], in the series with MCF7 [25], in the series on MCF7 [8] and with MCF7 [9] was Active. In addition, the result (in series [10]; in the series with MCF7 [12]; in the series with MCF7 [13]; in series [15]; in the series on MCF7 [16]) was Active. Further, the Activity in the series with MCF7 [24] was 86.3%; in series [19] it was 82.7%; in the series on MCF7 [7], “Tde”; in series [26] it was “Non-Toxic”; in series [20], 46%; with MCF7 [27] it was 13.7%. The Activity result is “Tde” with MCF7 [11] and 39.7% in series [23]. Besides, the values for the IC50 in series [1], in series [2] and in series [3] were 25.2 µM, 14.3 µM and 20.2 µM, respectively.
Turning to `CC1Oc2c(cc(C(=O)Nc3nnc(-c4ccncc4)s3)c3c2C=CC(C)(C)O3)C(=O)C1C` (stereo unspecified), the figures for the IC50 in series [1], in [2] and in series [3] were 74.3 µM, 57.9 µM and 75 µM, respectively.
For the molecule `CC1Oc2c(cc(C(=O)Nc3cccnc3)c3c2C=CC(C)(C)O3)C(=O)C1C` (stereo unspecified), the result (in the series with MCF7 [4]; in the series with MCF7 [5]; in the series on MCF7 [6]; in the series with MCF7 [8]; with MCF7 [9]; in series [10]) was Active. Also, the result (in the series on MCF7 [12]; with MCF7 [13]; in series [15]; in the series on MCF7 [16]) was Active. The Activity result was “Tde” with MCF7 [7], “Non-Toxic” in series [28] and “Tde” in the series with MCF7 [11]. For the same molecule, the results for the IC50 in series [1], in series [2] and in series [3] were 41.2 µM, 28.7 µM and 26.9 µM, respectively.
